From PubChem BioAssay (NCI)
“And” between values parts separate entries of the source, which are not always exact repeats. Identical values can stand only once.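 Method: 48-hour compound exposure of cells in 96-well plates, five concentrations, linear interpolation of endpoints. GI50 marks 50% less growth. TGI marks complete inhibition of growth.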

Key:
Test in all cases: NCI-60 cell line screen, 48 h
[1] = test system: HCT-116 colon
[2] = test system: HCT-15 colon
[3] = test system: MCF7 breast
[4] = test system: OVCAR-4 ovarian
[5] = test system: SR leukemia
[6] = test system: SW-620 colon
[7] = test system: U251 CNS
[8] = test system: SN12C renal
[9] = test system: UACC-62 melanoma
[10] = test system: BT-549 breast

SMILES	TGI [1]	TGI [2]	TGI [3]	TGI [4]	TGI [5]	TGI [6]	TGI [7]	GI50 [1]	GI50 [4]	GI50 [8]	TGI [8]	GI50 [5]	GI50 [6]	GI50 [7]	GI50 [9]	TGI [9]	TGI [10]	GI50 [2]	GI50 [10]	GI50 [3]
O=C(CCl)N1CCN(c2ccccn2)CC1	> 100 µM	> 10 µM	53 µM	31 µM	> 100 µM	51.6 µM	33.9 µM													
[pH]1p2[pH]p3p1p3[pH]2.c1cc[c]([Ge]([c]2ccccc2)[c]2ccccc2)cc1.c1cc[c]([Ge]([c]2ccccc2)[c]2ccccc2)cc1.c1cc[c]([Ge]([c]2ccccc2)[c]2ccccc2)cc1	62.3 µM			56.7 µM	80.2 µM	29.9 µM	19.7 µM	22.2 µM	25.2 µM	15.1 µM	29.7 µM	12.8 µM	16.3 µM	7.54 µM	14.3 µM	31 µM				
CC[C@@]1(O)C(=O)OCc2c1cc1n(c2=O)Cc2cc3cc(O)ccc3nc2-1	13.7 µM	20.8 µM and 42.5 µM		0.441 µM and 3.17 µM	2.14 µM	22.9 µM and 3.78 µM	0.0327 µM	0.0228 µM and 0.0176 µM	0.224 µM		1.48 µM and 3.54 µM		0.0179 µM and < 0.0154 µM			0.0795 µM and 0.0565 µM	26.6 µM	0.355 µM		
CCCCCCCCCCCCCCCC(=O)OCC1OC(OCCCC)[C@H](O[C@@H]2OC(C)C(OC(=O)CCC)C(O)C2O)C(O)C1O (stereo partly drawn)	28.7 µM	55.7 µM	> 100 µM	34.2 µM		44.5 µM	38.8 µM	15.4 µM	18.1 µM	14.1 µM	28.5 µM		21.9 µM	18.8 µM	10.2 µM	23.6 µM	41.7 µM	22.5 µM	23.4 µM	30.1 µM
CN1CCN(CCCCCOc2cc(O)c3c(=O)cc(-c4ccccc4)oc3c2)CC1	4.08 µM	4.02 µM	11.3 µM	77.7 µM		7.53 µM	4.86 µM	1.74 µM	19.1 µM	11.8 µM	27.6 µM		2.61 µM	1.98 µM	1.86 µM	3.26 µM	29.7 µM	1.79 µM	13.4 µM	3.45 µM
COc1cccc(N2C(=N)/C(=C3\Nc4ccccc4S3)CC2=O)c1	> 100 µM	> 100 µM	> 100 µM	71.9 µM		> 100 µM	> 100 µM	6.22 µM	12.1 µM	> 100 µM	> 100 µM		4.87 µM	3.89 µM	> 100 µM	> 100 µM	> 100 µM	0.815 µM	44.9 µM	6.65 µM
Cc1c(C(=O)/C=C/c2ccc([N+](=O)[O-])cc2)[n+](=O)c2ccccc2n1[O-]	> 100 µM			> 100 µM	> 100 µM	> 100 µM	> 100 µM				> 100 µM					> 100 µM				
Oc1ccc(I)c2cccnc12	> 100 µM	> 100 µM		> 100 µM	14.8 µM	> 100 µM	> 100 µM				> 100 µM									
O=C(CC(=O)N1N=C(n2ccc3ccccc32)CC1c1ccccc1)Nc1ccccc1Cl (stereo not drawn)	> 100 µM	> 100 µM		> 100 µM		> 100 µM	> 100 µM				> 100 µM					> 100 µM				
Cc1cc2c3c(nc4ccccc42)C(=O)c2cccnc2-c3n1	0.11 µM	0.162 µM	0.156 µM	4.27 µM		1.01 µM	6.93 µM	< 0.0416 µM	1.28 µM	0.146 µM	1.82 µM		0.17 µM	0.413 µM	0.284 µM	0.936 µM	2.41 µM	0.015 µM	1.15 µM	0.0212 µM
NC(=S)N/N=C/C(O[C@@H](/C=N/NC(N)=S)CO)n1cnc2c(N)ncnc21 (stereo partly drawn)	> 61.9 µM	> 62 µM		> 100 µM	> 100 µM	> 53.7 µM	> 89.4 µM				> 100 µM					> 100 µM				
CC1CN1c1c(C(=O)/C=C/c2ccc(F)cc2)c(-c2ccccc2)nn(C)c1=O (stereo not drawn)	27.3 µM			42.7 µM		32.7 µM	28.9 µM				29.1 µM					27.6 µM				
N#C/C(=C\c1ccc(O)c(O)c1)C(=O)NCc1cccc(C(F)(F)F)c1	17.4 µM	46.3 µM	> 100 µM	74.4 µM		31.3 µM	38.4 µM	3.79 µM	15.1 µM	11.3 µM	31.1 µM		9.33 µM	6.22 µM	10.2 µM	23.8 µM	34.4 µM	3.64 µM	5.99 µM	19.8 µM
O=c1[nH]c(-c2ccccc2)nc2cc([N+](=O)[O-])c(/C(Cl)=C/c3ccccc3)cc12	> 100 µM	> 100 µM		49.5 µM	> 100 µM	> 100 µM	> 100 µM				> 100 µM					42.6 µM				
COc1ccc(/C=C/C(=O)C(=O)/C=C/c2ccc(OC)c(OC)c2)cc1OC	1.33 µM	6.18 µM	9.48 µM	> 100 µM		3.31 µM	3.6 µM	0.319 µM	4.07 µM	3.06 µM	17.7 µM		1.08 µM	1.53 µM	1.92 µM	4.87 µM	4.45 µM	0.769 µM	1.81 µM	0.516 µM
CC(=O)[CH-]C(=O)c1ccccc1.CC(=O)[CH-]C(=O)c1ccccc1.CC[C@H](CCC(C)[C@H]1CCC2[C@@H]3CC=C4C[C@@H]([O-])CC[C@]4(C)C3CC[C@@]21C)C(C)C.CC[C@H](CCC(C)[C@H]1CCC2[C@@H]3CC=C4C[C@@H]([O-])CC[C@]4(C)C3CC[C@@]21C)C(C)C.Cl.[Ti+4] (stereo partly drawn)	> 25 µM	> 25 µM		> 25 µM		> 25 µM	> 25 µM				> 25 µM				> 25 µM	> 25 µM				
CC(=O)[CH-]C(=O)c1ccccc1.CC(=O)[CH-]C(=O)c1ccccc1.CC(=O)[CH-]C(=O)c1ccccc1.[Cl-].[Hf+4]		> 100 µM		> 100 µM		> 100 µM	> 100 µM		86.5 µM	28.8 µM	> 100 µM		52.2 µM	22 µM	29.7 µM	> 100 µM		23.9 µM		
CC(=O)NNc1nc(C)c(C(=O)/C=C/c2ccc(N(C)C)cc2)s1		> 100 µM				> 100 µM	> 100 µM				> 100 µM					> 100 µM				
C=CCc1cc(OC)c(O)c(C(=O)/C=C/c2ccc(OC)c(OC)c2)c1	27.6 µM			34.9 µM		97.1 µM	37.8 µM									52.2 µM				
O=C(Nc1ccc(Nc2ccc(NC(=O)c3ccccc3)c3c2C(=O)c2ccccc2C3=O)c2c1C(=O)c1ccccc1C2=O)c1ccccc1	> 100 µM	> 100 µM		> 100 µM	> 100 µM	> 100 µM	> 100 µM				> 100 µM					> 100 µM				
COc1ccc(C(=O)C(c2ccc(OC)cc2)C2(O)C(=O)Nc3c(Cl)cc(Cl)cc32)cc1 (stereo not drawn)		49.8 µM		20.1 µM		39.1 µM	> 100 µM				35.6 µM									

SMILES	TGI [1]	TGI [2]	TGI [3]	TGI [4]	TGI [5]	TGI [6]	TGI [7]	GI50 [1]	GI50 [4]	GI50 [8]	TGI [8]	GI50 [5]	GI50 [6]	GI50 [7]	GI50 [9]	TGI [9]	TGI [10]	GI50 [2]	GI50 [10]	GI50 [3]
CCP(C)(=O)CC	> 100 µM	> 100 µM		> 100 µM	> 100 µM	> 100 µM	> 100 µM				> 100 µM					> 100 µM				
O=C1CC[C@@H](S(=O)(=O)c2ccccc2)[C@H](/C=C/c2ccccc2)O1	> 100 µM	> 100 µM		> 100 µM	> 100 µM	> 100 µM	> 100 µM				> 100 µM					> 100 µM				
Cc1[nH]c2ccccc2c1/C=C/c1c(C)[nH]c2ccccc12	> 100 µM	> 100 µM		> 100 µM		> 100 µM	> 100 µM									> 100 µM				
Nc1nc2c(ncn2C2OC(CO)C(O)C2O)c(=O)o1 (stereo not drawn)	> 100 µM	> 100 µM		> 100 µM	> 100 µM	> 93.6 µM	> 100 µM				> 100 µM					> 100 µM				
CCOC(=O)C1(C)C2=CC=C(O2)C(C)(C)C2=CC=C(O2)C(C)(C)C2=CC=C(O2)C(C)(C)C2=CC=C1O2	> 100 µM	> 100 µM		> 100 µM	> 100 µM	> 100 µM	> 100 µM				> 100 µM									
Cc1cc(C)c([O-])c(-[n+]2c(-c3ccccc3)cc(-c3ccccc3)cc2-c2ccccc2)c1	10.9 µM	25.4 µM		18.5 µM	11.8 µM	15.7 µM	14.9 µM				18.5 µM					12.5 µM				
NNC(=O)N/N=C(/CC1(O)C(=O)Nc2ccc(Br)cc21)c1ccccc1 (stereo not drawn)	72.6 µM	> 100 µM			87.8 µM	> 100 µM					> 100 µM					50.9 µM				
O=C1C=C(Nc2cc(Cl)ccc2Cl)c2ccccc2C1=O	> 100 µM	> 100 µM		> 100 µM		> 100 µM	> 100 µM				> 100 µM					31.4 µM				
CN(C)CC1CCCC/C1=N\OC(=O)c1ccccc1 (stereo not drawn)	> 100 µM	> 100 µM		> 100 µM	> 100 µM	> 100 µM	> 100 µM				> 100 µM					> 100 µM				
CS(=O)(=O)ON1C(=O)c2ccc(N)cc2C1=O	> 100 µM	> 100 µM		> 100 µM	> 68.8 µM	> 100 µM	> 100 µM				> 100 µM					> 100 µM				
[CH3][Ge]([CH3])([CH2]CC#N)[S]c1ccccc1		28.2 µM		50 µM		29.4 µM	22.6 µM		18.6 µM	15.2 µM	31.6 µM		14.1 µM	9.85 µM	13.5 µM	29.8 µM		15 µM		
C=C1C2CCCC1C1(S(C)(=O)=O)CCCCC21O (stereo not drawn)	> 100 µM	> 100 µM		> 100 µM	> 100 µM	> 100 µM	> 100 µM				> 100 µM					> 100 µM				
c1ccc(C2=Nc3ccccc3N3CNN=C23)cc1	> 100 µM	> 100 µM	> 100 µM	> 100 µM	> 100 µM	> 100 µM	> 100 µM	> 100 µM	> 100 µM	> 100 µM	> 100 µM	25 µM	> 100 µM	> 100 µM	> 100 µM	> 100 µM		90.6 µM		> 100 µM
COC12OCCN(C)C1=CC(=O)C1N=NCC12 (stereo not drawn)	> 100 µM	> 100 µM				> 100 µM	> 100 µM				> 100 µM					> 100 µM				
Nc1nc(N)c2c(Cl)c(CNc3ccc(Cl)c(Cl)c3)ccc2n1	12.4 µM	13.6 µM		16.9 µM	7.36 µM	14.6 µM	11.2 µM				23.3 µM					13.7 µM	19.1 µM			
COC1(OC)CCC2(C)OC(c3ccccc3)C1O2 (stereo not drawn)	> 100 µM	> 100 µM		> 100 µM	> 100 µM	> 100 µM	> 100 µM				> 100 µM					> 100 µM				
NC(N)=NCCCC(Nc1c2ccccc2nc2ccccc12)C(=O)O (stereo not drawn)	> 100 µM	> 100 µM		43.4 µM	> 100 µM	> 100 µM	> 100 µM				> 100 µM									
COc1c(CC(C)=O)c2ccccc2n1C(C)=O	> 100 µM	> 100 µM		> 100 µM	> 100 µM	> 100 µM	> 100 µM				> 100 µM					> 100 µM				
Cc1cc(NS(=O)(=O)c2ccc(NC(=O)c3cccc4c(Nc5ccc(S(=O)(=O)Nc6cc(C)on6)cc5)c5ccc(Cl)cc5nc34)cc2)no1	57.5 µM	> 100 µM		> 100 µM		> 100 µM	> 100 µM				> 100 µM					> 100 µM				
COc1cc(C(=O)/C=C/c2cccnc2Nc2ccc(Cl)cc2)cc(OC)c1OC	1.84 µM	3.48 µM	2.35 µM	2.98 µM		2.47 µM	2.54 µM	0.568 µM	1.51 µM	1.46 µM	2.86 µM		0.955 µM	1.25 µM	1.54 µM	2.98 µM	2.85 µM	1.49 µM	1.5 µM	1.02 µM
